Data on 18 molecules can be found in patent US9732063B2, “Kinase inhibitors” (RESPIVERT LIMITED, priority 2012, dated 2017).

A value given as a limit tells only on which side of the number the result lay.

Assay [1] has as its system PBMCs. Description: LPS-induced TNFα/IL-8 release in PBMC cells. Format: cell-based. The following applies: Homo sapiens, read-out: IC50 Values for Inhibition of Cytokine Release PBMCs IL-8. The procedure:
Peripheral blood mononuclear cells (PBMCs) from healthy subjects are separated from whole blood using a density gradient (Lymphoprep, Axis-Shield Healthcare). The PBMCs are seeded in 96 well plates and treated with compounds at the desired concentration for 2 hours before addition of 1 ng/mL LPS (Escherichia Coli O111:B4 from Sigma Aldrich) for 24 hours under normal tissue culture conditions (37° C., 5% CO2). The supernatant is harvested for determination of IL-8 and TN Fa concentrations by sandwich ELISA (Duo-set, R&D systems) and read on the fluorescence microplate reader (Varioskan® Flash, ThermoFisher Scientific).

A further assay has as its target GSK3α (Homo sapiens (Human), UniProt P49840). As to the kind of experiment: GSK 3α enzyme inhibition (Z-LYTE FRET, Method 2). Format: biochemical. The method, then:
The enzyme inhibitory activities of compounds disclosed herein are determined by FRET using synthetic peptides labelled with both donor and acceptor fluorophores (Z-LYTE, Invitrogen Ltd., Paisley, UK).
The inhibitory activities of compounds of the invention against the GSK 3α enzyme isoform (Invitrogen), are evaluated by determining the level of activation/phosphorylation of the target peptide. The GSK3-α protein (500 ng/mL, 2.5 μL) is mixed with the test compound (2.5 μL at either 4 μg/mL, 0.4 μg/mL, 0.04 μg/mL, or 0.004 μg/mL) for 2 hr at RT. The FRET peptide (8 μM, 2.5 μL), which is a phosphorylation target for GSK3α, and ATP (40 μM, 2.5 μL) are then added to the enzyme/compound mixture and the resulting mixture incubated for 1 hr. Development reagent (protease, 5 μL) is added for 1 hr prior to detection in a fluorescence microplate reader (Varioskan® Flash, ThermoFisher Scientific).
In all cases, the site-specific protease cleaves non-phosphorylated peptide only and eliminates the FRET signal. Phosphorylation levels of each reaction are calculated using the ratio of coumarin emission (donor) over fluorescein emission (acceptor), for which high ratios indicate high phosphorylation and low ratios indicate low phosphorylation levels.

Assay [2] deals with PBMCs. Description: IL-2 and IFN gamma release in CD3/CD28 stimulated PBMC cells. Format: cell-based. The following applies: Homo sapiens. The procedure: PBMCs from healthy subjects are separated from whole blood using a density gradient (Lymphoprep, Axis-Shield Healthcare). Cells are added to a 96 well plate pre-coated with a mixture of CD3/CD38 monoclonal antibodies (0.3 μg/mL eBioscience and 3 μg/mL BD Pharmingen respectively). Compound at the desired concentration is then added to the wells and the plate left for 3 days under normal tissue culture conditions. Supernatants are harvested and IL-2 and IFN gamma release determined by Sandwich ELISA (Duo-set, R&D System). The IC50 is determined from the dose response curve.

GSK3α, sequence (P49840 whole entry): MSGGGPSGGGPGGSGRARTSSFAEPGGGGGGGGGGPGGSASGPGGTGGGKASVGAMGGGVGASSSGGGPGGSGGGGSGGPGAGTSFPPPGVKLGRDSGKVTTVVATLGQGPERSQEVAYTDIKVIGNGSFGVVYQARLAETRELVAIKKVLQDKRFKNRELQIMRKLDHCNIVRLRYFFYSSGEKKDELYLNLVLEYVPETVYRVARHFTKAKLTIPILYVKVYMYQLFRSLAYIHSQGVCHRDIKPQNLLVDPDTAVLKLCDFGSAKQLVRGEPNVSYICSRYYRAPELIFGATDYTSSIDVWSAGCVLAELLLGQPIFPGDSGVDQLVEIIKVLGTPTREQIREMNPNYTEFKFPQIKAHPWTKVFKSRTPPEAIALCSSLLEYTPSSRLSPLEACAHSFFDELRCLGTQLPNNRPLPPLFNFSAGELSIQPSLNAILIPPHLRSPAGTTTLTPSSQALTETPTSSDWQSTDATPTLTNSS

Turning to `COCCOCCOCCOc1cccc(Nc2nccc(Oc3ccc(NC(=O)Nc4cc(C(C)(C)C)nn4-c4ccc(OC)nc4)c4ccccc34)n2)c1` [Example 4, 1-(3-(tert-Butyl)-1-(6-methoxypyridin-3-yl)-1H-pyrazol-5-yl)-3-(4-((2-((3-(2-(2-(2-methoxy-ethoxy)ethoxy)ethoxy)phenyl)amino)pyrimidin-4-yl)oxy)naphthalen-1-yl)urea], the half-inhibitory concentration (IC50) (in general, the concentration that gives 50% inhibition) in the assay on PBMCs [1] is 1.7 nM. Consider `COc1ccc(-n2nc(C(C)(C)C)cc2NC(=O)Nc2ccc(Oc3ccnc(Nc4cccc(OC(N)=O)c4)n3)c3ccccc23)cn1` [Example 5, 3-(4-((4-(3-(3-(tert-Butyl)-1-(6-methoxypyridin-3-yl)-1H-pyrazol-5-yl)ureido)naphthalen-1-yl)oxy)pyrimidin-2-yl)amino)phenyl carbamate], for which the figures for the IC50 against GSK3α and in the assay on PBMCs [1] were 306 nM and 1.9 nM, respectively.

Take `COc1ccc(-n2nc(C(C)(C)C)cc2NC(=O)Nc2ccc(Oc3ccnc(Nc4cccc(SCCO)c4)n3)c3ccccc23)cn1` [Example 6]: the results for the IC50 at GSK3α and in the assay on PBMCs [1] were 501 nM and 1.6 nM, respectively. The corresponding values for `COc1ccc(-n2nc(C(C)(C)C)cc2NC(=O)Nc2ccc(Oc3ccnc(Nc4cccc([S+]([O-])C5CC5)c4)n3)c3ccccc23)cn1` (stereo not shown) [Example 7, 1-(3-(tert-Butyl)-1-(6-methoxypyridin-3-yl)-1H-pyrazol-5-yl)-3-(4-((2-((3-(cyclopropyl-sulfinyl)phenyl)amino)pyrimidin-4-yl)oxy)naphthalen-1-yl)urea] are 125 nM and 0.9 nM.

Take `COc1ccc(-n2nc(C(C)(C)C)cc2NC(=O)Nc2ccc(Oc3ccnc(Nc4cccc(S(=O)(=O)C5CC5)c4)n3)c3ccccc23)cn1` [Example 8, 1-(3-(tert-Butyl)-1-(6-methoxypyridin-3-yl)-1H-pyrazol-5-yl)-3-(4-((2-((3-(cyclopropyl-sulfonyl)phenyl)amino)pyrimidin-4-yl)oxy)naphthalen-1-yl)urea]: the IC50 against GSK3α was 258 nM; in the assay on PBMCs [1], 1 nM. On to `COc1cc(N=S(C)(C)=O)cc(Nc2nccc(Oc3ccc(NC(=O)Nc4cc(C(C)C)nn4-c4ccc(C)cc4)c4ccccc34)n2)c1` [Example 16, 3-(5-Methoxy((4-((4-(3-(3-isopropyl-1-(p-tolyl)-1H-pyrazol-5-yl)ureido)naphthalen-1-yl)-oxy)pyrimidin-2-yl)amino))phenyl-S,S-dimethyl-N-phenyl sulfoximine], for which, in the assay on PBMCs [1] (LPS-stimulated PBMCs), the IC50 is 1.7 nM.

`Cc1ccc(-n2nc(C(C)C)cc2NC(=O)Nc2ccc(Oc3ccnc(Nc4cccc(S(=O)(=O)C5CC5)c4)n3)c(Cl)c2Cl)cc1` [Example 24, 1-(2,3-Dichloro-4-((2-((3-(cyclopropylsulfonyl)phenyl)amino)pyrimidin-4-yl)oxy)phenyl)-3-(3-isopropyl-1-(p-tolyl)-1H-pyrazol-5-yl)urea]: the IC50 stood at 117 nM on GSK3α and 3.8 nM with PBMCs [1]. The corresponding values for `COc1cc(Nc2nccc(Oc3ccc(NC(=O)Nc4cc(C(C)C)nn4-c4ccc(C)cc4)c(F)c3F)n2)cc(OCCN2CCOCC2)c1` [Example 25, 1-(2,3-Difluoro-4-((2-((3-methoxy-5-(2-morpholinoethoxy)phenyl)amino)pyrimidin-4-yl)oxy)phenyl)-3-(3-isopropyl-1-(p-tolyl)-1H-pyrazol-5-yl)urea] are 804 nM and 2 nM. The corresponding values for `COc1cc(N=S(C)(C)=O)cc(Nc2nccc(Oc3ccc(NC(=O)Nc4cc(C(C)C)nn4-c4ccc(C)cc4)c(Cl)c3Cl)n2)c1` [Example 26] are 426 nM and 3.9 nM.

Consider `COCCOCCOCCOc1cc(Nc2nccc(Oc3ccc(NC(=O)Nc4cc(C(C)C)nn4-c4ccc(C)cc4)c4ncccc34)n2)cc(OC)c1` [Example 27, 1-(3-Isopropyl-1-(P-tolyl)-1H-pyrazol-5-yl)-3-(5-((2-((3-methoxy-5-(2-(2-(2-methoxy-ethoxy)ethoxy)ethoxy)phenyl)amino)pyrimidin-4-yl)oxy)quinolin-8-yl)urea], for which the IC50 at GSK3α is over 10000 nM; in the assay on PBMCs [1], 24.8 nM.

For `COc1cc(Nc2nccc(Oc3ccc(NC(=O)Nc4cc(C(C)C)nn4-c4ccc(C)cc4)c4ncccc34)n2)cc(OCCN2CCOCC2)c1` [Example 28, 1-(3-Isopropyl-1-(P-tolyl)-1H-pyrazol-5-yl)-3-(5-((2-((3-methoxy-5-(2-morpholinoethoxy)-phenyl)amino)pyrimidin-4-yl)oxy)quinolin-8-yl)urea], the IC50 is over 10000 nM on GSK3α and 24 nM with PBMCs [1]. In the same order, the values of `COCCOCCOCCSc1cc(Nc2nccc(Oc3ccc(NC(=O)Nc4cc(C(C)C)nn4-c4ccc(C)cc4)c4ccccc34)n2)cc(OC)c1` [Example 31, 1-(3-Isopropyl-1-(P-tolyl)-1H-pyrazol-5-yl)-3-(4-((2-((3-methoxy-5-((2-(2-(2-methoxy-ethoxy)ethoxy)ethyl)thio)phenyl)amino)pyrimidin-4-yl)oxy)naphthalen-1-yl)urea] are over 10000 nM and 4.4 nM. The corresponding values for `COCCOCCOCCOc1cc(Nc2nccc(Oc3ccc(NC(=O)Nc4cc(C(C)C)nn4-c4ccc(C)cc4)c4ccccc34)n2)cc(OC(F)(F)F)c1` [Example 33, 1-(3-Isopropyl-1-(p-tolyl)-1H-pyrazol-5-yl)-3-(4-((2-((3-(2-(2-(2-methoxyethoxyl)ethoxy)-ethoxy)-5-(trifluoromethoxy)phenyl)amino)pyrimidin-4-yl)oxy)naphthalen-1-yl)urea] are over 10000 nM and 8.7 nM. The corresponding values for `COCCOCCOCCOc1cc(Nc2nccc(Oc3ccc(NC(=O)Nc4cc(C(C)C)nn4-c4ccc(C)cc4)c4ccccc34)n2)cc(C(F)(F)F)c1` [Example 34] are over 10000 nM and 12.2 nM. `COc1cc(Nc2nccc(Oc3ccc(NC(=O)Nc4cc(C(C)(C)C)nn4-c4ccc(C)cc4)c4ccccc34)n2)cc(OCCOCCOCCN2CCOCC2)c1` [Example 58, 1-(3-(tert-Butyl)-1-(p-tolyl)-1H-pyrazol-5-yl)-3-(4-((2-((3-methoxy-5-(2-(2-(2-morpholinoethoxy)ethoxy)ethoxy)phenyl)amino)pyrimidin-4-yl)oxy)naphthalen-1-yl)urea]: the IC50 in the assay with PBMCs [2] (read-out: IC50 Values for Inhibition of Cytokine Release PBMCs IFNγ) is 1.3 nM; with PBMCs [2] (read-out: IC50 Values for Inhibition of Cytokine Release PBMCs IL-2), 39.6 nM.

Turning to `COc1cc(Nc2nccc(Oc3ccc(NC(=O)Nc4cc(C(C)(C)C)nn4-c4ccc(C)cc4)c(Cl)c3Cl)n2)cc(OCCN2CCOCC2)c1` [Example 59, 1-(3-(tert-Butyl)-1-(p-tolyl)-1H-pyrazol-5-yl)-3-(2,3-dichloro-4-((2-((3-methoxy-5-(2-morpholinoethoxy)phenyl)amino)pyrimidin-4-yl)oxy)phenyl)urea], the IC50 in the assay on PBMCs [1] is 4.2 nM. The same measure, in the same setting: the result for `COCCOCCOCCN(C)c1cc(Nc2nccc(Oc3ccc(NC(=O)Nc4cc(C(C)(C)C)nn4-c4ccc(C)cc4)c4ccccc34)n2)cc(OC)c1` [Example 67, 1-(3-(tert-Butyl)-1-(p-tolyl)-1H-pyrazol-5-yl)-3-(4-((2-((3-methoxy-5-((2-(2-(2-methoxyethoxy)ethoxy)ethyl)(methyl)amino)phenyl)amino)pyrimidin-4-yl)oxy)naphthalen-1-yl)urea] reads 3.5 nM. On the same count and under the same terms, with `COc1cc(Nc2nccc(Oc3ccc(NC(=O)Nc4cc(C(C)(C)C)nn4-c4ccc(C)cc4)c(Cl)c3Cl)n2)cc(S(=O)(=O)C2CC2)c1` [Example 68, 1-(3-(tert-Butyl)-1-(p-tolyl)-1H-pyrazol-5-yl)-3-(2,3-dichloro-4-((2-((3-(cyclopropylsulfonyl)-5-methoxyphenyl)amino)pyrimidin-4-yl)oxy)phenyl)urea] the figure was 5.2 nM.
